Data: patent publication US11458138B2 (Novartis AG, priority 2017, dated 2022)

Legend:
limbal stem cells (LSCs) = experiment: Differentiation of expanded LSCs into corneal epithelium cells (p63alpha / keratin 12); type: cell-based, human; conditions: transferred to conditions that enable differentiation
Text: Shown are views where the transition from the p63alpha-positive cell identity to the keratin-12 identity are occurring.
These characteristics can be observed by immunohistochemistry or FACS.

[1] = test system: corneal endothelium cell population; experiment: FACS analysis of expanded corneal endothelium cell population (CD73, CD44, CD166, CD105); type: cell-based, human; conditions: vs CECs cultured without LATS inhibitor (high levels)
Text: FIG. 21: FACS analysis of the corneal endothlelium cell population expanded in the presence of the LATS inhibitor, compound ex. 47, and CECs cultured in the absence of a LATS inhibitor. The cell population expanded in the presence of the LATS inhibitor expresses low levels of CD73 (FIG. 21a, grey line), CD44 (FIG. 21b, grey line), CD166 (FIG. 21c, grey line) and CD105 (FIG. 21d, grey line); while the cell population cultured without the LATS inhibitor expresses high levels of CD44, CD73, CD105 and CD166 (black lines).
(4) The cells express relatively low levels of CD73. The relative expression levels are lower than cells which have undergone endothelial to mesenchymal transition. The expression of CD73 may be estimated by standard techniques known in the art, such as for example FACS analysis or immunohistochemistry.

CC(N(C)c1nc(-c2ccncc2)nc2cnccc12)C(F)(F)F (racemic) [Example 47, N-methyl-2-(pyridin-4-yl)-N-(1,1,1-trifluoropropan-2-yl)pyrido[3,4-d]pyrimidin-4-amine]
differentiation of expanded LSCs into corneal epithelium cells (keratin 12) (limbal stem cells (LSCs)): can differentiate into corneal epithelium cells
expression of CD73, CD44, CD166 and CD105 by FACS [1]: low levels
